Common to all, as to type: cell-based
Assay [1] deals with ATCC6258 Candida krusei strain. Description: Anti-Candida in vitro assay, ATCC6258. Particulars: Pichia kudriavzevii; Candida krusei ATCC6258, mean of triplicate; read-out: MIC (IC80) ATCC6258. An outline of the steps:
(§1)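 In this assay, compounds diluted in MOPS-buffered RPMI 1640 act on 10^3 cells/mL for 24 h at 37 °C. Growth is scored fluorimetrically with Alamar Blue (4 h, 550/590 nm).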

The test system of assay [2] is CA98005 (Candida albicans). Description: Anti-Candida in vitro assay, CA98005. To be noted: Candida albicans CA98005, mean of triplicate; read-out: MIC (IC80) CA98005. In a few lines: as §1
Assay [3] deals with T1, 11β-hydroxylase (CYP11B1) (Homo sapiens, UniProt P15538).
T1 construct: expressed in transfected cells; host or cells: Schizosaccharomyces pombe strain SZ1
T1 sequence (P15538 25-503): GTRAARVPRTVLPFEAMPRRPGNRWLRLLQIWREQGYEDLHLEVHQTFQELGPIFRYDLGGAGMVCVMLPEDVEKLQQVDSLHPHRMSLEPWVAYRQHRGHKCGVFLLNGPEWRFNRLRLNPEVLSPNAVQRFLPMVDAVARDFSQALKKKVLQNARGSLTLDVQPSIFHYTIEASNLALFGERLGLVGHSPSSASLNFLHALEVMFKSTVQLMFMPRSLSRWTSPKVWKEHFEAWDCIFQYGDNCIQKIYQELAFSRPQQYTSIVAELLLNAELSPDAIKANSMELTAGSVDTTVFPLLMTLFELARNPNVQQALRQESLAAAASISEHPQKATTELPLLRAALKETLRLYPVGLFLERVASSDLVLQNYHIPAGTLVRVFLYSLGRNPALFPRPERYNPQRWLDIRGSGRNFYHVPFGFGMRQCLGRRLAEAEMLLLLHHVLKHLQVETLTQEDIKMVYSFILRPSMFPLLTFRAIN
As to the kind of experiment: In vitro inhibition of CYP11B1 (Schizosaccharomyces pombe SZ1). To be noted: inhibitor 100 nM to 5 µM, three to four independent experiments. As to the method: (§2) For the CYP11B1 assay, 11-deoxycortisol (RSS) was used as substrate, whereas 11-deoxycorticosterone (DOC) was used for the CYP11B2 assay. These non-radioactive steroids were purchased from Sima (Deisenhofen, Germany). Radioactive steroids were obtained from Amersham Pharmacia Biotech (Freiburg, Germany). Two Schizosaccharomyces pombe strains were used, SZ1 expressing CYP11B1 and MB164 expressing CYP11B2. The assays were performed as described previously by Bureik et al.. Exponentially growing fission yeast cells were cultivated by shaking and with good aeration at 30 °C in 500 µL Edinburgh Minimal Medium Glutamate (EMMG) containing supplements as required. Inhibitors were dissolved in ethanol at different concentrations, and equal volumes of ethanolic solutions were used in all cases (including controls). Final concentrations of inhibitors ranged from 100 nM to 5 µM. Cells were preincubated with the respective inhibitor solutions for 15 min prior to the addition of steroid substrates (100 nM DOC or 100 nM RSS, respectively). For detection of steroids, 1% of the total substrate amount was radioactively labeled as [^3H]RSS, [^3H]DOC, or [^14C]DOC. After 4 h (MB164) or 24 h (SZ1) cultures were extracted with chloroform and dried under vacuum. The residues were dissolved in 10 µL chloroform and spotted onto glass-backed silica-coated HPTLC plates (Kieselgel 60 F254, Merck; Darmstadt, Germany). In addition, small amounts of non-radioactive steroids were spotted as references. The HPTLC was developed twice in chloroform/methanol/water (300:20:1, v/v/v) and steroids identified after exposure to Fuji imaging plates and quantitated on a phosphoimager (BAS-2500, Fuji; Stamford, CT, USA).

Assay [4] deals with ATCC90018 Candida parapsilosis strain. Description: Anti-Candida in vitro assay, ATCC90018. To be noted: Lodderomyces parapsilosis; Candida parapsilosis ATCC90018, mean of triplicate; read-out: MIC (IC80) ATCC90018. In a few lines: as §1
Assay [5] has as its system ATCC2091 Candida albicans strain. Description: Anti-Candida in vitro assay, ATCC2091. To be noted: Candida albicans ATCC2091, mean of triplicate; read-out: MIC (IC80) ATCC2091. In a few lines: as §1
A further assay deals with C. albicans CA98001. As to the kind of experiment: Anti-Candida in vitro assay (Alamar Blue), C. albicans CA98001. To be noted: for MIC: Candida albicans, CA98001, 24 h, MIC = IC80, 24 h at 37 °C, mean of triplicate; for Times more active than FLC against C. albicans CA98001: ratio of MIC values versus FLC. An outline of the steps:
as §1

The next assay has as its system CK98002 (Candida krusei). Description: Anti-Candida in vitro assay, CK98002. Particulars: Pichia kudriavzevii; Candida krusei CK98002, mean of triplicate; read-out: MIC (IC80) CK98002. In a few lines:
as §1

Assay [6] has as its target T2, aldosterone synthase (CYP11B2) (Homo sapiens, UniProt P19099).
T2 construct: expressed in transfected cells; host or cells: Schizosaccharomyces pombe strain MB164
T2 sequence (P19099 25-503): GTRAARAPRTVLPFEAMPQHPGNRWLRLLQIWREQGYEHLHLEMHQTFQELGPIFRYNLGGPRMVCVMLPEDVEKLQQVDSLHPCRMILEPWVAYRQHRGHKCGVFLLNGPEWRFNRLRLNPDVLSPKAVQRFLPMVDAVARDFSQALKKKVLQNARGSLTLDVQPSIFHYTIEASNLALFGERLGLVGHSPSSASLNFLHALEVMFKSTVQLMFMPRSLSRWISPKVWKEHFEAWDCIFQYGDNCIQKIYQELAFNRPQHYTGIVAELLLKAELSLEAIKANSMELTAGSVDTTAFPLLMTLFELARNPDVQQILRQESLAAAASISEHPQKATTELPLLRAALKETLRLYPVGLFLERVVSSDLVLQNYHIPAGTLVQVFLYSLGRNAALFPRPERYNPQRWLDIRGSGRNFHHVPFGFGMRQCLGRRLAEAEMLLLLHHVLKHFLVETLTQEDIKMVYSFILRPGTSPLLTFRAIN
As to the kind of experiment: In vitro inhibition of CYP11B2 (Schizosaccharomyces pombe MB164). To be noted: inhibitor 100 nM to 5 µM, three to four independent experiments. The method, then:
as §2

In brackets after ≈: the same amount, converted by molar mass. Entries after “also recorded” stand apart in the source; their conditions may differ. Bounds are passed on as bounds.

On to `O[C@@](Cn1cncn1)(Cn1ccc2ccccc21)c1ccc(Cl)cc1Cl` [(+)-(R)-8g], for which the MIC in assay [1] was 24.4 µg/mL (≈ 63 µM); in assay [2] it was 2.71 µg/mL (≈ 6.99 µM); in assay [4], over 38.7 µg/mL; in assay [5], 1.01 µg/mL (≈ 2.6 µM); with C. albicans CA98001 it was 0.023 µg/mL (≈ 0.0594 µM); in the assay with CK98002 (Candida krusei), 22.1 µg/mL (≈ 57 µM). The CYP11B1 inhibition effect result in assay [3] is “no inhibition”. In addition, the CYP11B2 inhibition effect entry in assay [6] is “slight inhibitory effect; also recorded: slight inhibition”.
As to `O[C@](Cn1cncn1)(Cn1ccc2ccccc21)c1ccc(Cl)cc1Cl` [(−)-(S)-8g], the MIC was 0.167 µg/mL (≈ 0.431 µM) in assay [1]; 0.026 µg/mL (≈ 0.0671 µM) in assay [2]; 0.027 µg/mL (≈ 0.0697 µM) in assay [4]; under 0.039 µg/mL in assay [5]; 0.000256 µg/mL (≈ 0.000661 µM) against C. albicans CA98001; 0.022 µg/mL (≈ 0.0568 µM) in the assay on CK98002 (Candida krusei). Also, the CYP11B1 inhibition effect result in assay [3] is given as “no inhibition”. Moreover, the “Times more active than FLC against C. albicans CA98001” value in the assay on C. albicans CA98001 is listed as “≈ 80”. The CYP11B2 inhibition effect entry in assay [6] is reported as “no inhibition”.
Regarding `OC(Cn1cncn1)(Cn1ccc2ccccc21)c1ccc(Cl)cc1Cl` (centres unmarked) [Compound 8g, 2-(2,4-Dichlorophenyl)-3-(1H-indol-1-yl)-1-(1H-1,2,4-triazol-1-yl)-propan-2-ol], the MIC in assay [1] was 0.08 µg/mL (≈ 0.207 µM); in assay [2], under 0.004 µg/mL; in assay [4] it was 0.15 µg/mL (≈ 0.387 µM); in assay [5], under 0.004 µg/mL; in the assay on C. albicans CA98001, 0.000259 µg/mL (≈ 0.000669 µM); in the assay with CK98002 (Candida krusei), 2.79 µg/mL (≈ 7.2 µM). Besides, the CYP11B1 inhibition effect result in assay [3] was “no inhibitory activity; also recorded: no inhibition”. Besides, the “Times more active than FLC against C. albicans CA98001” value in the assay with C. albicans CA98001 is recorded as “≈ 80”. Also, in assay [6], the CYP11B2 inhibition effect result was “slight inhibitory effect; also recorded: slight inhibition”.

Broadly, the MIC is the smallest concentration in the dilution series that meets the test's criterion for growth inhibition.
